These results are taken from ChEMBL document CHEMBL3588769, “Synthesis and quantitative structure-activity relationships study for phenylpropenamide derivatives as inhibitors of hepatitis B virus replication” (Eur J Med Chem, 2015).

The subject of one series is Hepatitis B virus. Briefly: Antiviral activity against HBV infected in human HepAD38 cells assessed as inhibition of viral DNA synthesis by dot blot hybridization method. The class given is functional, organism-based. Also on record: -log(1/EC50): unit not given here. To be noted: for EC50: Hepatitis B virus, HePAD38.
Series [1] can be described thus: Cytotoxicity against human HepAD38 cells assessed as reduction in cell viability. Type of series: cell-based.
For another series, the system named is HepG2. Briefly: Cytotoxicity against human HepG2 cells assessed as reduction in cell viability. The class given is cell-based.

As usually defined, the EC50 is the concentration needed to bring the measured effect to its halfway point. In the case of `O=C(N/C(C(=O)N1CCCCC1)=C(\Cl)c1ccccc1Br)c1ccccc1`, in the series with Hepatitis B virus, the “-log(1/EC50)” value worked out at 2 and the EC50 was > 100 µM. The Activity result in series [1] is “Non-toxic”.
As for `O=C(N/C(C(=O)N1CCCCC1)=C(\Br)c1ccccc1)c1ccccc1`, in the series with Hepatitis B virus, the “-log(1/EC50)” value came to 0.1139 and the half-maximal effective concentration (EC50) was 1.3 µM. In addition, in series [1], the Activity result was “Non-toxic”.
As to `O=C(N/C(C(=O)N1CCCCC1)=C(\Cl)c1ccc(Br)cc1)c1ccccc1`, in the series on Hepatitis B virus, the “-log(1/EC50)” value is reported as 2 and the EC50 was > 100 µM. Moreover, the Activity entry in series [1] is “Non-toxic”.
The matching figures for `O=C(N/C(C(=O)N1CCCCC1)=C(\Cl)c1cccc(Br)c1)c1ccccc1`: 2, > 100 µM and “Non-toxic”.
Regarding `O=C(N/C(C(=O)N1CCCCC1)=C(\Cl)c1cncc2ccccc12)c1ccccc1`, in the series with Hepatitis B virus, the “-log(1/EC50)” value is 1.462 and the EC50 came to 29 µM. For the same compound, in series [1], the Activity result is “Non-toxic”.
Consider `O=C(N/C(C(=O)N1CCCCC1)=C(\Cl)c1ccco1)c1ccccc1`, for which, in the series with Hepatitis B virus, the “-log(1/EC50)” value is -0.09691 and the EC50 was 0.8 µM. In series [1], the Activity result was “Non-toxic”.
As to `O=C(N/C(C(=O)N1CCCCC1)=C(\Br)c1cnc2ccccc2c1)c1ccccc1`, in the series with Hepatitis B virus, the “-log(1/EC50)” value came to 0.8451 and the EC50 was determined as 7 µM. In addition, the Activity entry in series [1] is on record as “Non-toxic”.
In the case of `Cc1ccc(/C(Cl)=C(/NC(=O)c2ccccc2)C(=O)N2CCCCC2)cc1`, in the series with Hepatitis B virus, the “-log(1/EC50)” value is reported as 0.04139 and the EC50 turned out to be 1.1 µM. Also, the Activity result in series [1] is reported as “Non-toxic”.
On to `COc1ccc(/C(Cl)=C(/NC(=O)c2ccccc2)C(=O)N2CCCCC2)cc1`, for which, in the series with Hepatitis B virus, the “-log(1/EC50)” value turned out to be 1.398 and the EC50 was 25 µM. Further, the Activity result in series [1] is recorded as “Non-toxic”.
Regarding `O=C(N/C(C(=O)N1CCCCC1)=C(\Br)c1cccnc1)c1ccccc1`, in the series on Hepatitis B virus, the “-log(1/EC50)” value was determined as 0 and the EC50 came to 1 µM. Besides, the Activity result in series [1] was “Non-toxic”.
As to `Cc1ccccc1/C(Cl)=C(/NC(=O)c1ccccc1)C(=O)N1CCCCC1`, in the series on Hepatitis B virus, the “-log(1/EC50)” value was -0.004365 and the EC50 stood at 1 µM. Besides, the Activity entry in series [1] is “Non-toxic”.
As to `O=C(N/C(C(=O)N1CCCCC1)=C(\Br)c1ccc(Br)cc1)c1ccccc1`, in the series on Hepatitis B virus, the “-log(1/EC50)” value is recorded as 1.813 and the EC50 was 65 µM. In addition, the Activity result in series [1] is “Non-toxic”.
On to `O=C(N/C(C(=O)N1CCCCC1)=C(\Br)c1ccc(Cl)cc1)c1ccccc1`, for which, in the series with Hepatitis B virus, the “-log(1/EC50)” value turned out to be 1 and the EC50 stood at 10 µM. Moreover, in series [1], the Activity entry is reported as “Non-toxic”.
`O=C(N/C(C(=O)N1CCCCC1)=C(\Cl)c1ccc(F)cc1)c1ccccc1`: in the series with Hepatitis B virus, the “-log(1/EC50)” value is on record as 0.3424 and the EC50 came out at 2.2 µM. The Activity entry in series [1] was “Non-toxic”.
The matching figures for `O=C(N/C(C(=O)N1CCCCC1)=C(\Br)c1ccc(F)cc1)c1ccccc1`: 0.2553, 1.8 µM and “Non-toxic”.
The matching figures for `COc1ccc(/C(Br)=C(/NC(=O)c2ccccc2)C(=O)N2CCCCC2)cc1`: 0.9031, 8 µM and “Non-toxic”.
Regarding `Cc1ccccc1/C(Br)=C(/NC(=O)c1ccccc1)C(=O)N1CCCCC1`, in the series on Hepatitis B virus, the “-log(1/EC50)” value is listed as -0.05061 and the EC50 turned out to be 0.9 µM. Moreover, in series [1], the Activity result is “Non-toxic”.
As for `O=C(N/C(C(=O)N1CCCCC1)=C(\Cl)c1ccccc1Cl)c1ccccc1`, in the series with Hepatitis B virus, the “-log(1/EC50)” value is given as 1.591 and the EC50 stood at 39 µM. In addition, the Activity entry in series [1] is recorded as “Non-toxic”.
For the compound `O=C(N/C(C(=O)N1CCCCC1)=C(\Br)c1ccccc1Br)c1ccccc1`, in the series with Hepatitis B virus, the “-log(1/EC50)” value came to 1.398 and the EC50 amounted to 25 µM. The Activity entry in series [1] is given as “Non-toxic”.
With `O=C(N/C(C(=O)N1CCCCC1)=C(\Br)c1ccccc1F)c1ccccc1`, in the series on Hepatitis B virus, the “-log(1/EC50)” value is 0.1761 and the EC50 was determined as 1.5 µM. The Activity result in series [1] was “Non-toxic”.
In the case of `N#Cc1ccccc1/C(Br)=C(/NC(=O)c1ccccc1)C(=O)N1CCCCC1`, in the series on Hepatitis B virus, the “-log(1/EC50)” value is 0.04139 and the EC50 was 1.1 µM. For the same compound, the Activity entry in series [1] is given as “Non-toxic”.
As for `COc1ccccc1/C(Cl)=C(/NC(=O)c1ccccc1)C(=O)N1CCCCC1`, in the series with Hepatitis B virus, the “-log(1/EC50)” value is on record as 1.322 and the EC50 was determined as 21 µM. Also, the Activity result in series [1] was “Non-toxic”.
Turning to `COc1ccccc1/C(Br)=C(/NC(=O)c1ccccc1)C(=O)N1CCCCC1`, in the series on Hepatitis B virus, the “-log(1/EC50)” value was 0.3222 and the EC50 amounted to 2.1 µM. The Activity entry in series [1] is reported as “Non-toxic”.
The matching figures for `O=C(N/C(C(=O)N1CCCCC1)=C(\Br)c1ccccc1Cl)c1ccccc1`: 0.9031, 8 µM and “Non-toxic”.
For the compound `O=C(N/C(C(=O)N1CCCCC1)=C(\Br)c1cncc2ccccc12)c1ccccc1`, in the series on Hepatitis B virus, the “-log(1/EC50)” value is given as 0.699 and the EC50 was 5 µM. Also, the Activity entry in series [1] is listed as “Non-toxic”.
With `O=C(N/C(C(=O)N1CCCCC1)=C(\Cl)c1ccccc1F)c1ccccc1`, in the series with Hepatitis B virus, the “-log(1/EC50)” value was 0.2553 and the EC50 was determined as 1.8 µM. Further, in series [1], the Activity result is recorded as “Non-toxic”.
As for `N#Cc1ccccc1/C(Cl)=C(/NC(=O)c1ccccc1)C(=O)N1CCCCC1`, in the series on Hepatitis B virus, the “-log(1/EC50)” value came to 0.2304 and the EC50 is 1.7 µM. Further, the Activity entry in series [1] is “Non-toxic”.
As to `O=C(N/C(C(=O)N1CCCCC1)=C(\Cl)c1ccc(Cl)cc1)c1ccccc1`, in the series on Hepatitis B virus, the “-log(1/EC50)” value was determined as 1.708 and the EC50 amounted to 51 µM. In addition, in series [1], the Activity result was “Non-toxic”.
Take `O=C(N/C(C(=O)N1CCCCC1)=C(\Cl)c1ccccc1)c1ccccc1`: in the series with Hepatitis B virus, the “-log(1/EC50)” value is on record as 0.07918 and the concentration giving a half-maximal response (EC50) stood at 1.2 µM. In addition, the Activity result in series [1] is listed as “Non-toxic”. For the same compound, in the series with HepG2, the Activity result was “Non-toxic”.
With `O=C(N/C(C(=O)N1CCCCC1)=C(\Br)c1ccccc1[N+](=O)[O-])c1ccccc1`, in the series with Hepatitis B virus, the “-log(1/EC50)” value came out at 0.7782 and the EC50 is 6 µM. Besides, in series [1], the Activity result is recorded as “Non-toxic”.
The like results for `O=C(N/C(C(=O)N1CCCCC1)=C(\Br)c1cccc(Br)c1)c1ccccc1` were, in that order, 1.544, 35 µM and “Non-toxic”.
With `O=C(N/C(C(=O)N1CCCCC1)=C(\Cl)c1ccccc1[N+](=O)[O-])c1ccccc1`, in the series on Hepatitis B virus, the “-log(1/EC50)” value is given as 1.531 and the EC50 turned out to be 34 µM. Moreover, the Activity result in series [1] is “Non-toxic”.
The like results for `Cc1ccc(/C(Br)=C(/NC(=O)c2ccccc2)C(=O)N2CCCCC2)cc1` were, in that order, 0.4472, 2.8 µM and “Non-toxic”.
Turning to `O=C(N/C(C(=O)N1CCCCC1)=C(\Cl)c1cnc2ccccc2c1)c1ccccc1`, in the series with Hepatitis B virus, the “-log(1/EC50)” value stood at 1.477 and the EC50 came to 30 µM. For the same compound, the Activity result in series [1] is listed as “Non-toxic”.
For `O=C(N/C(C(=O)N1CCCCC1)=C(\Br)c1ccco1)c1ccccc1`, in the series on Hepatitis B virus, the “-log(1/EC50)” value is on record as -0.04576 and the EC50 came to 0.9 µM. Besides, the Activity entry in series [1] was “Non-toxic”.
`O=C(N/C(C(=O)N1CCCCC1)=C(\Cl)c1cccnc1)c1ccccc1`: in the series on Hepatitis B virus, the “-log(1/EC50)” value was -0.02687 and the EC50 came to 0.9 µM. In addition, in series [1], the Activity result is recorded as “Non-toxic”.
